# Test results as given in patent publication US20250129018A1, “PLEUROMUTILIN DERIVATIVES CONTAINING CYCLOALKYL GROUP AND PREPARATION METHODS AND APPLICATIONS THEREOF” (priority 2023, published 2025).
# Tests used:
# MRSE = assay: MIC, two-fold serial dilution method; assay type: cell-based, Methicillin-resistant Staphylococcus epidermidis
# Method: (§1) The pleuromutilin derivatives 1-4 prepared from Example 9 of the present disclosure were determined for their effect on Methicillin-resistant Staphylococcus aureus, Methicillin-resistant Staphylococcus epidermidis, standard strains of Staphylococcus aureus (S. aureus-29213 and S. aureus-25923), clinical strains 1-48 of S. aureus, Escherichia coli, S. agalactiae and S. dysgalactiae equisimilis (S. dysgalactiae-1, S. dysgalactiae-2, S. dysgalactiae-3) and minimum inhibitory concentration (MIC) using a two-fold serial dilution method, and the results were shown in Table 1, Table 2 and Table 3. The standard strains are commercially available from ATCC, and the clinical strains are preserved by Lanzhou Institute of Husbandry and Pharmaceutical Science of Chinese Academy of Agricultural Sciences (Lanzhou, Gansu, China).
# S. dysgalactiae-1 = assay: MIC, two-fold serial dilution method; assay type: cell-based, S. dysgalactiae equisimilis; settings: S. dysgalactiae-1
# Method: as §1
# S. dysgalactiae-3 = assay: MIC, two-fold serial dilution method; assay type: cell-based, S. dysgalactiae equisimilis; settings: S. dysgalactiae-3
# Method: as §1
# S. dysgalactiae-2 = assay: MIC, two-fold serial dilution method; assay type: cell-based, S. dysgalactiae equisimilis; settings: S. dysgalactiae-2
# Method: as §1
# S. aureus-29213 = assay: MIC, two-fold serial dilution method; assay type: cell-based, Staphylococcus aureus; settings: S. aureus-29213
# Method: as §1
# S. aureus-25923 = assay: MIC, two-fold serial dilution method; assay type: cell-based, Staphylococcus aureus; settings: S. aureus-25923
# Method: as §1
# S. agalactiae-1 = assay: MIC, two-fold serial dilution method; assay type: cell-based; settings: S. agalactiae-1
# Method: as §1
# MRSA-337371 [1] = assay: In vivo antimicrobial activity experiment in mice (systemic MRSA infection, survival)
# Method: First, an MRSA-337371 cryopreservation solution was taken out from a freezer set at −80° C. and the following steps were performed: • (1) 10 μL of the thawed MRSA-337371 cryopreservation solution was pipetted and added into 6 mL of Tryptic Soy Broth (TSB), and incubated until the bacterial solution had become turbid; • (2) a sterile inoculation loop was dipped into and picked up a small amount of the bacterial solution and was dragged on an MH agar medium for streaking, and then the MH agar medium was inverted and placed in a constant temperature incubator at 37° C. to incubate for 24 hours; • (3) a single colony on the MH agar medium was picked and inoculated in 30 mL of MH liquid medium with an inoculation loop, and placed in a constant temperature shaking incubator at 37° C. for 18 hours for later use. […]
# 6-week-old, about 20 g-weighted, SPF-grade healthy mice (one half male and the other female) were randomly divided into 5 groups, with 10 mice in each group (one half male and the other female), which were specifically divided into a positive control group (an MRSA infection group), a negative control group (a sterile normal saline control group, which was injected with only 10 mL/kg of drug solvent), drug control groups (a Tiamulin treatment group and a Valnemulin treatment group) and an experimental group (a derivative 2 treatment group). 100 mg/kg of cyclophosphamide was intraperitoneally injected to the mice 4 days before the experiment, and 150 mg/kg of cyclophosphamide injection was injected to the mice 1 day before the experiment to keep the mice in an immunosuppressed state. After fasting for 12 hours, except for the negative control group, the remaining 4 groups were intraperitoneally injected with 0.5 mL of 10^8 CFU/mL bacterial solution, and after 30 min, the drug control groups and the experimental group were intravenously injected with 20 mg/kg of the respective drug. The mice were continued to be reared, and observed to record the deaths daily.
# Calculation of survival rate: During the experiment, the morbidity and the mortality in each group of mice was observed and recorded in detail every day, and the survival rate in each group of mice was calculated as:
# Survival rate=Number of surviving animals/Number of experimental animals×100%
# S. aureus-42 = assay: MIC, clinical strain; assay type: cell-based, Staphylococcus aureus
# Method: as §1
# S. aureus-1 = assay: MIC, clinical strain; assay type: cell-based, Staphylococcus aureus; settings: in µg/mL
# Method: as §1
# S. aureus-26 = assay: MIC, clinical strain; assay type: cell-based, Staphylococcus aureus
# Method: as §1
# S. aureus-25 = assay: MIC, clinical strain; assay type: cell-based, Staphylococcus aureus
# Method: as §1
# S. aureus-14 = assay: MIC, clinical strain; assay type: cell-based, Staphylococcus aureus
# Method: as §1
# S. aureus-44 = assay: MIC, clinical strain; assay type: cell-based, Staphylococcus aureus
# Method: as §1
# S. aureus-11 = assay: MIC, clinical strain; assay type: cell-based, Staphylococcus aureus
# Method: as §1
# S. aureus-38 = assay: MIC, clinical strain; assay type: cell-based, Staphylococcus aureus
# Method: as §1
# S. aureus-47 = assay: MIC, clinical strain; assay type: cell-based, Staphylococcus aureus
# Method: as §1
# S. aureus-46 = assay: MIC, clinical strain; assay type: cell-based, Staphylococcus aureus
# Method: as §1
# S. aureus-2 = assay: MIC, clinical strain; assay type: cell-based, Staphylococcus aureus
# Method: as §1
# S. aureus-34 = assay: MIC, clinical strain; assay type: cell-based, Staphylococcus aureus
# Method: as §1
# S. aureus-29 = assay: MIC, clinical strain; assay type: cell-based, Staphylococcus aureus
# Method: as §1
# S. aureus-17 = assay: MIC, clinical strain; assay type: cell-based, Staphylococcus aureus
# Method: as §1
# S. aureus-12 = assay: MIC, clinical strain; assay type: cell-based, Staphylococcus aureus
# Method: as §1
# S. aureus-39 = assay: MIC, clinical strain; assay type: cell-based, Staphylococcus aureus
# Method: as §1
# S. aureus-33 = assay: MIC, clinical strain; assay type: cell-based, Staphylococcus aureus
# Method: as §1
# S. aureus-32 = assay: MIC, clinical strain; assay type: cell-based, Staphylococcus aureus
# Method: as §1
# S. aureus-7 = assay: MIC, clinical strain; assay type: cell-based, Staphylococcus aureus
# Method: as §1
# MRSA-337371 [2] = assay: MIC, two-fold serial dilution method; assay type: cell-based, Methicillin-resistant Staphylococcus aureus; settings: MRSA-337371
# Method: as §1
smiles,measurement,setting,value
C=CC1(C)CC(OC(=O)CSC(C)(C)CNC(=O)C2CCC2)C2(C)C(C)CCC3(CCC(=O)C32)C(C)C1O (centres unmarked) [derivative 2],minimum inhibitory concentration,MRSE,0.031 µg/mL
same,minimum inhibitory concentration,S. dysgalactiae-1,0.031 µg/mL
same,minimum inhibitory concentration,S. dysgalactiae-3,0.031 µg/mL
same,minimum inhibitory concentration,S. dysgalactiae-2,0.031 µg/mL
same,minimum inhibitory concentration,S. aureus-29213,0.063 µg/mL
same,minimum inhibitory concentration,S. aureus-25923,0.031 µg/mL
same,minimum inhibitory concentration,S. agalactiae-1,0.031 µg/mL
same,protection rate against systemic MRSA infection in mice,MRSA-337371 [1]; 20 mg/kg,60%
same,treatment effect in mice,MRSA-337371 [1]; compared with marketed drugs,superior to the marketed Tiamulin and Valnemulin
same,mortality rate,"MRSA-337371 [1]; day 1, immunosuppressed mice infected i.p. with MRSA-337371, 20 mg/kg intravenously 30 min after infection",10%
same,mortality rate,"MRSA-337371 [1]; day 2, immunosuppressed mice infected i.p. with MRSA-337371, 20 mg/kg intravenously",40%
same,final survival rate,"MRSA-337371 [1]; end of observation, immunosuppressed mice infected i.p. with MRSA-337371, 20 mg/kg intravenously",60%
same,in vitro minimum inhibitory concentration,S. aureus-42,0.063
same,in vitro minimum inhibitory concentration,S. aureus-1,0.125
same,in vitro minimum inhibitory concentration,S. aureus-26,0.063
same,in vitro minimum inhibitory concentration,S. aureus-25,0.063
same,in vitro minimum inhibitory concentration,S. aureus-14,0.063
same,in vitro minimum inhibitory concentration,S. aureus-44,0.031
same,in vitro minimum inhibitory concentration,S. aureus-11,0.063
same,in vitro minimum inhibitory concentration,S. aureus-38,0.016
same,in vitro minimum inhibitory concentration,S. aureus-47,0.063
same,in vitro minimum inhibitory concentration,S. aureus-46,0.063
same,in vitro minimum inhibitory concentration,S. aureus-2,0.063
same,in vitro minimum inhibitory concentration,S. aureus-34,0.063
same,in vitro minimum inhibitory concentration,S. aureus-29,0.031
same,in vitro minimum inhibitory concentration,S. aureus-17,0.063
same,in vitro minimum inhibitory concentration,S. aureus-12,0.031
same,in vitro minimum inhibitory concentration,S. aureus-39,0.016
same,in vitro minimum inhibitory concentration,S. aureus-33,0.031
same,in vitro minimum inhibitory concentration,S. aureus-32,0.063
same,in vitro minimum inhibitory concentration,S. aureus-7,0.063
same,minimum inhibitory concentration,MRSA-337371 [2],0.031 µg/mL
